Patent publication US20260373119A1, “NOVEL COMPOUND, AND COMPOSITION FOR PREVENTING OR TREATING HER2-POSITIVE CANCER, COMPRISING SAME” (EWHA UNIVERSITY - INDUSTRY COLLABORATION FOUNDATION, priority 2022, published 2026)

Tested on: HER2 gene
Assay: HER2 gene (mRNA) expression
Format: cell-based
Conditions: dose-dependent
Description: To further confirm the effects of the candidate compound, […] quantitative analysis was performed. Specifically, RNA was extracted from cells using the FavorPrep Tri-RNA reagent (FAVORGEN Biotech Corp., Taiwan) and reverse-transcribed into complementary DNA (cDNA) using the PrimeScript RT Reagent Kit (Takara Bio Inc., Japan) following the manufacturer's instructions. Quantitative gene analysis was conducted using the SensiFAST SYBR No-ROX kit (Bioline, Canada). PCR was performed using the CFX96™ real-time PCR detection system (Bio-Rad, USA) under the following protocol: 95 °C for 2 minutes, and 27 cycles at 95 °C for 10 seconds, 56 °C for 10 seconds, and 72 °C for 20 seconds. The relative amount of mRNA was determined using the ΔΔCt method, and normalized against GAPDH or ACTIN. […]

For `CC(=O)N1N=C(c2cccc(O)c2)CC1c1ccc(Cl)cc1` (stereo not shown) [Compound 15, 1-[5-(4-Chlorophenyl)-3-(3-hydroxyphenyl)-4,5-dihydropyrazol-1-yl]-ethanone], the “HER2 gene expression level” value was “significantly downregulate HER2 gene and protein expression levels in a dose-dependent manner”.
